In PubChem BioAssay (NCI) one finds GI50 and TGI data, which are given here for 13 compounds.

Among the test systems are BT-549 breast; EKVX NSCLC; HCC-2998 colon; HCT-116 colon; MDA-MB-231 breast; OVCAR-3 ovarian; OVCAR-8 ovarian; SNB-75 CNS.
Common to all, as to assay: NCI-60 cell line screen, 48 h

Several values for one entry are separate records, joined by “and”; a condition that tells them apart may be missing. Equal values may be shown once.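 These data come from cells grown in 96-well plates and exposed to compound for 48 hours at five concentrations. Abbreviation: GI50, concentration required for 50% inhibition of growth. TGI: total growth inhibition.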

Regarding `O=C(c1ccccc1)C(Br)C(Br)c1cccc([N+](=O)[O-])c1` (stereo unspecified), the GI50 in the test with BT-549 breast was 2 µM; in the test on EKVX NSCLC, 16.4 µM; in the test on HCC-2998 colon, 1.57 µM; in the test on HCT-116 colon, 0.864 µM; with MDA-MB-231 breast, 1.96 µM; in the test with OVCAR-3 ovarian, 1.61 µM. Also, the GI50 in the test with OVCAR-8 ovarian was 3.35 µM; in the test on SNB-75 CNS, 6.48 µM. In addition, the TGI in the test with BT-549 breast worked out at 3.65 µM; with EKVX NSCLC, 34.5 µM; with HCC-2998 colon, 2.95 µM; in the test on HCT-116 colon it was 2.08 µM; in the test with MDA-MB-231 breast, 3.79 µM; in the test with OVCAR-3 ovarian it was 2.96 µM. In addition, the TGI with OVCAR-8 ovarian is 12.7 µM; in the test on SNB-75 CNS it was 19.8 µM.

Regarding `CC1(O)CC(c2nc(-c3ccc4ccc(-c5ccccc5)nc4c3)c3c(N)nccn23)C1` (stereo unspecified), the GI50 is 6.92 µM and 5.87 µM in the test with BT-549 breast; 11.7 µM and > 10 µM in the test on EKVX NSCLC; 6.71 µM and > 10 µM in the test with HCC-2998 colon; 7.32 µM and 5.29 µM in the test with HCT-116 colon; 6.97 µM and 5.12 µM with MDA-MB-231 breast; 15 µM and > 10 µM in the test with OVCAR-3 ovarian. The GI50 with OVCAR-8 ovarian was 9.34 µM and > 10 µM; with SNB-75 CNS, 4.62 µM and 5.57 µM. Also, the TGI in the test with BT-549 breast was 24.3 µM and > 10 µM; in the test with EKVX NSCLC, > 100 µM; with HCC-2998 colon, 27.3 µM and > 10 µM; in the test with HCT-116 colon, 26.7 µM and > 10 µM; in the test with MDA-MB-231 breast, 38.1 µM and > 10 µM; in the test on OVCAR-3 ovarian, 34.7 µM and > 10 µM. Besides, the TGI in the test with OVCAR-8 ovarian is 80 µM and > 10 µM; with SNB-75 CNS, 43.2 µM and > 10 µM.

On to `N#CC1=C(N)Oc2c(sc3c(Br)cccc23)C1c1ccc(Br)cc1` (stereo unspecified), for which the GI50 in the test with BT-549 breast is 1.32 µM; in the test on EKVX NSCLC, 3.31 µM; in the test on HCC-2998 colon it was 1.77 µM; in the test with HCT-116 colon, 0.407 µM; in the test with MDA-MB-231 breast it was 1.21 µM; in the test on OVCAR-3 ovarian it was 0.307 µM. For the same compound, the GI50 is 0.588 µM in the test on OVCAR-8 ovarian and 0.407 µM in the test with SNB-75 CNS. The TGI was 12.7 µM in the test on BT-549 breast; 20.5 µM with EKVX NSCLC; 7.33 µM with HCC-2998 colon; 1.84 µM in the test with HCT-116 colon; 3.7 µM with MDA-MB-231 breast; 1.15 µM in the test on OVCAR-3 ovarian. For the same compound, the TGI with OVCAR-8 ovarian and with SNB-75 CNS was 3.09 µM throughout.

For the compound `Cc1cc(NCc2cc(Nc3ccnc4cc(Cl)ccc34)ccc2F)nc(N2CCN(C)CC2)n1`, the GI50 with BT-549 breast was 1.77 µM; in the test with EKVX NSCLC, 2.91 µM; in the test with HCC-2998 colon, 2.09 µM; with HCT-116 colon, 1.25 µM; in the test on MDA-MB-231 breast, 1.64 µM; with OVCAR-3 ovarian, 1.76 µM. Further, the GI50 in the test with OVCAR-8 ovarian is 3.14 µM; in the test with SNB-75 CNS, 1.21 µM. In addition, the TGI came to 3.65 µM with BT-549 breast; 12.6 µM in the test on EKVX NSCLC; 4.35 µM with HCC-2998 colon; 2.88 µM in the test on HCT-116 colon; 3.74 µM in the test on MDA-MB-231 breast; 3.83 µM in the test on OVCAR-3 ovarian. Moreover, the TGI with OVCAR-8 ovarian was 12.9 µM; in the test with SNB-75 CNS, 3.16 µM.

For `Cc1cc(=O)[nH]c2cc3c(c4c(n3Cc3ccc(Cl)cc3Cl)CC(C)(C)CC4=O)c(O)c12`, the GI50 with BT-549 breast is 19.6 µM; in the test on EKVX NSCLC, 36.4 µM; in the test on HCC-2998 colon, > 100 µM; with HCT-116 colon, > 100 µM; in the test with MDA-MB-231 breast it was > 100 µM; in the test with OVCAR-3 ovarian, > 100 µM. The GI50 in the test on OVCAR-8 ovarian is > 100 µM; in the test on SNB-75 CNS, 24.6 µM. The TGI was 64.2 µM in the test on BT-549 breast; > 100 µM with EKVX NSCLC; > 100 µM in the test on HCC-2998 colon; > 100 µM in the test with HCT-116 colon; > 100 µM with MDA-MB-231 breast; > 100 µM with OVCAR-3 ovarian. Further, the TGI with OVCAR-8 ovarian is > 100 µM; in the test with SNB-75 CNS, 59.8 µM.

For the compound `O=c1[nH]c(=O)c2cc(C3CC(O)C(CO)O3)ccc2[nH]1` (stereo unspecified), the GI50 in the test on BT-549 breast, in the test on EKVX NSCLC, with HCC-2998 colon, with HCT-116 colon, in the test on MDA-MB-231 breast and with OVCAR-3 ovarian was > 100 µM each time. The GI50 in the test with OVCAR-8 ovarian is > 100 µM; in the test with SNB-75 CNS it was 26.8 µM. The TGI with BT-549 breast, in the test on EKVX NSCLC, in the test with HCC-2998 colon, with HCT-116 colon, in the test on MDA-MB-231 breast and in the test with OVCAR-3 ovarian was > 100 µM throughout. Besides, the TGI with OVCAR-8 ovarian and in the test with SNB-75 CNS was > 100 µM throughout.

As for `O=C1C=CC[C@H](/C=C/c2ccccc2)O1`, the GI50 is 2.28 µM in the test on BT-549 breast; 6.48 µM in the test on EKVX NSCLC; 0.642 µM with HCC-2998 colon; 1.72 µM with HCT-116 colon; 5.42 µM in the test on MDA-MB-231 breast; 1.94 µM with OVCAR-3 ovarian. Also, the GI50 in the test with OVCAR-8 ovarian was 6.03 µM; in the test with SNB-75 CNS it was 0.394 µM. Further, the TGI is 19.3 µM in the test with BT-549 breast; > 50.1 µM in the test with EKVX NSCLC; 3.42 µM with HCC-2998 colon; 13.9 µM with HCT-116 colon; 32.4 µM with MDA-MB-231 breast; 7.31 µM in the test on OVCAR-3 ovarian. For the same compound, the TGI in the test with OVCAR-8 ovarian is > 100 µM; in the test on SNB-75 CNS it was 4.69 µM.

With `COc1ccccc1N1CCN(CCc2c[nH]c3cc4c(cc23)OCO4)CC1`, the GI50 in the test with BT-549 breast is 23.3 µM; with EKVX NSCLC, 16.8 µM; in the test on HCC-2998 colon it was 16.5 µM; with HCT-116 colon it was 10.9 µM; in the test on MDA-MB-231 breast, 21.4 µM; in the test with OVCAR-3 ovarian it was 30.2 µM. For the same compound, the GI50 with OVCAR-8 ovarian was 42 µM; with SNB-75 CNS it was 25 µM. In addition, the TGI in the test with BT-549 breast is > 100 µM; in the test on EKVX NSCLC, 64.6 µM; with HCC-2998 colon, 32.6 µM; with HCT-116 colon, > 100 µM; in the test with MDA-MB-231 breast, 77.7 µM; in the test with OVCAR-3 ovarian it was > 100 µM. Moreover, the TGI in the test with OVCAR-8 ovarian and in the test with SNB-75 CNS was > 100 µM throughout.

For `COc1cccc2c1C(=O)c1c(O)c3c(c(O)c1C2=O)C[C@@](O)(C(=O)CO)C[C@@H]3O[C@H]1C[C@H](N)[C@@H](O)[C@H](C)O1`, the GI50 was 0.128 µM in the test on BT-549 breast; 1.2 µM with EKVX NSCLC; 0.161 µM in the test with HCC-2998 colon; 0.112 µM with HCT-116 colon; 0.595 µM with MDA-MB-231 breast; 0.613 µM with OVCAR-3 ovarian. For the same compound, the GI50 in the test with OVCAR-8 ovarian is 0.256 µM; in the test with SNB-75 CNS, 0.084 µM. In addition, the TGI in the test with BT-549 breast was found to be 0.474 µM; with EKVX NSCLC, 16.1 µM; in the test on HCC-2998 colon, 1.29 µM; in the test with HCT-116 colon, 5.17 µM; in the test on MDA-MB-231 breast, 12.1 µM; in the test on OVCAR-3 ovarian it was 13.4 µM. In addition, the TGI turned out to be 19.5 µM with OVCAR-8 ovarian and 0.634 µM in the test on SNB-75 CNS.

For `CCN1C(=O)N(c2ccccc2)C2NC(=S)N(/N=C/C=C/c3ccccc3)C21` (stereo unspecified), the GI50 in the test with BT-549 breast was 0.643 µM; with EKVX NSCLC, 0.619 µM; in the test with HCC-2998 colon, 0.399 µM; in the test on HCT-116 colon, 0.297 µM; in the test on MDA-MB-231 breast, 0.715 µM; in the test on OVCAR-3 ovarian, 0.263 µM. The GI50 was 0.429 µM in the test with OVCAR-8 ovarian and > 100 µM in the test on SNB-75 CNS. Further, the TGI with BT-549 breast was > 24.7 µM; with EKVX NSCLC, > 100 µM; in the test on HCC-2998 colon it was > 100 µM; in the test on HCT-116 colon, > 100 µM; with MDA-MB-231 breast, > 100 µM; with OVCAR-8 ovarian, > 100 µM. The TGI with SNB-75 CNS was > 100 µM.

On to `COc1cccc(OCCCN)c1-c1cc(Nc2cnc(C#N)cn2)n[nH]1`, for which the GI50 is 0.0797 µM and 0.0856 µM with BT-549 breast; 0.00484 µM in the test with HCC-2998 colon; 0.105 µM and 0.236 µM in the test on HCT-116 colon; 0.933 µM in the test with MDA-MB-231 breast; 0.00761 µM and < 0.0155 µM with OVCAR-3 ovarian; 0.00591 µM in the test on OVCAR-8 ovarian. Further, the GI50 with SNB-75 CNS is 2.07 µM. Also, the TGI in the test with BT-549 breast worked out at 8.2 µM; in the test on EKVX NSCLC, 45.6 µM; in the test on HCC-2998 colon it was 11.2 µM; in the test with HCT-116 colon, 12.9 µM; with MDA-MB-231 breast, 11.9 µM; with OVCAR-3 ovarian it was 11.4 µM. The values for the TGI in the test with OVCAR-8 ovarian and with SNB-75 CNS were 1.44 µM and 13.9 µM, respectively.

Turning to `COc1ccc(-n2cc(-c3cc(OC)c(OC)c(OC)c3)nc2SCc2ccccc2)cc1OC`, the GI50 was > 82.7 µM with BT-549 breast; 57.9 µM in the test on EKVX NSCLC; > 100 µM in the test on HCC-2998 colon; 49.1 µM in the test on HCT-116 colon; > 63.6 µM in the test with MDA-MB-231 breast; > 100 µM with OVCAR-3 ovarian. In addition, the values for the GI50 in the test on OVCAR-8 ovarian and with SNB-75 CNS were > 83.6 µM and 34.4 µM, respectively. Moreover, the TGI with BT-549 breast, in the test on EKVX NSCLC, with HCC-2998 colon, with HCT-116 colon, with MDA-MB-231 breast and in the test with OVCAR-3 ovarian was > 100 µM throughout. For the same compound, the TGI in the test with OVCAR-8 ovarian and in the test on SNB-75 CNS was > 100 µM in each case.

For the compound `Cc1cc2[nH]c(=O)c3c4ccccc4cn3c2cc1C`, the GI50 is 19.6 µM with BT-549 breast; 13.6 µM in the test on EKVX NSCLC; 4.04 µM in the test with HCC-2998 colon; 1.58 µM with HCT-116 colon; 8.34 µM in the test on MDA-MB-231 breast; 14 µM in the test on OVCAR-3 ovarian. Also, the GI50 with OVCAR-8 ovarian was 7.07 µM; with SNB-75 CNS, 15.5 µM. For the same compound, the TGI in the test with BT-549 breast is 40.9 µM; in the test with EKVX NSCLC, 31.9 µM; in the test on HCC-2998 colon it was 16.7 µM; in the test on HCT-116 colon, 3.13 µM; in the test with MDA-MB-231 breast, 23.7 µM; with OVCAR-3 ovarian, 28.5 µM. Moreover, the TGI in the test on OVCAR-8 ovarian was 25.9 µM; in the test on SNB-75 CNS, 30.4 µM.
